According to PubChem BioAssay (NCI):
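Growth conditions: 96-well plates. Treatment: test compound, 48 hours, 5 concentrations. Analysis: linear interpolation between bracketing concentrations; unreached endpoints set to highest concentration. GI50 marks 50% less growth. TGI denotes the concentration required for complete inhibition of growth.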

Key:
Assay in all cases: NCI anticancer screen, dose series, 48 h
A549 NSCLC = test system: A549 NSCLC
IGROV1 ovarian = test system: IGROV1 ovarian
SN12C renal = test system: SN12C renal
MDA-MB-435 = test system: MDA-MB-435
SNB-19 CNS = test system: SNB-19 CNS
OVCAR-4 ovarian = test system: OVCAR-4 ovarian
HOP-92 NSCLC = test system: HOP-92 NSCLC
UACC-62 melanoma = test system: UACC-62 melanoma
MCF7 breast = test system: MCF7 breast
HCC-2998 colon = test system: HCC-2998 colon

| SMILES | TGI (A549 NSCLC) [µM] | TGI (IGROV1 ovarian) [µM] | TGI (SN12C renal) [µM] | TGI (MDA-MB-435) [µM] | TGI (SNB-19 CNS) [µM] | TGI (OVCAR-4 ovarian) [µM] | TGI (HOP-92 NSCLC) [µM] | TGI (UACC-62 melanoma) [µM] | TGI (MCF7 breast) [µM] | TGI (HCC-2998 colon) [µM] | GI50 (SN12C renal) [µM] | GI50 (MDA-MB-435) [µM] | GI50 (SNB-19 CNS) [µM] | GI50 (HOP-92 NSCLC) [µM] | GI50 (MCF7 breast) [µM] | GI50 (UACC-62 melanoma) [µM] | GI50 (HCC-2998 colon) [µM] |
| --- | --- | --- | --- | --- | --- | --- | --- | --- | --- | --- | --- | --- | --- | --- | --- | --- | --- |
| CCC1(CC)C(=O)CC[C@@]2(C)C1=CC[C@H]1[C@@H]3CC[C@H](O)[C@@]3(C)CC[C@@H]12 | 28.9 | > 100 | 31.6 | > 100 | > 100 | > 100 | > 100 | > 100 | – | – | – | – | – | – | – | – | – |
| Cc1cc2ccccc2n1CC(=O)NCC(C)C | > 100 | > 100 | > 100 | > 100 | > 100 | > 100 | > 100 | > 100 | > 100 | > 100 | – | – | – | – | – | – | – |
| CN(C)CCOC(=O)COc1ccc(Cl)cc1 | > 100 | > 100 | > 100 | > 100 | > 100 | > 100 | > 100 | > 100 | > 100 | > 100 | – | – | – | – | – | – | – |
| COc1ccc(C2(c3ccc(OC)cc3)OC(=O)c3cccc4cccc2c34)cc1 | > 100 | > 100 | > 100 | > 100 | > 100 | > 100 | > 100 | > 100 | > 100 | 37.5 | – | – | – | – | – | – | – |
| O=c1[nH]c(=O)n(C2OC(COP(=O)(O)OP(=O)(O)O)C(O)C2O)cc1F (centres undefined) | > 41.4 | > 50 | > 50 | – | > 50 | > 26.3 | > 50 | > 42.6 | – | > 50 | – | – | – | – | – | – | – |
| O=C(O)/C=C(/CC(=O)O)C(=O)O | 43.2 | 42.2 | 40.7 | 42.6 | 62.3 | 65.3 | – | 36.7 | 39.3 | 90.4 | – | – | – | – | – | – | – |
| Cc1c2c3cc(O)ccc3nc-2n(C)c2ccccc12 | 3.48 | 8.92 | 4.38 | 4.62 | 15.1 | – | 5.21 | 3.21 | 9.82 | 6.28 | – | – | – | – | – | – | – |
| CCN(CC)CCO/N=C1\CC[C@H]2[C@@H]3CC=C4C[C@@H](O)CC[C@]4(C)[C@H]3CC[C@]12C | – | > 100 | > 100 | 31.9 | 98.5 | 71.1 | – | 31.1 | 31.6 | 31.7 | – | – | – | – | – | – | – |
| CCOC(=O)c1ccc(C(=O)C(C(C)=O)C(=O)OC(C)(C)C)n1C (centres undefined) | > 100 | > 100 | > 100 | > 100 | > 100 | > 100 | – | > 100 | > 100 | > 100 | – | – | – | – | – | – | – |
| CC1=CC(O)C(O)C2(C)C1CC1OC(=O)C(O)C3C(C)C(O)C4(O)OCC13C42 (centres undefined) | 387 | 224 | > 625 | – | 91.7 | 476 | 14.6 | 341 | 464 | 126 | – | – | – | – | – | – | – |
| O=C1c2[nH]cc(CN3CCNCC3)c2C(=O)c2c1c(O)c1ccccc1c2O | – | – | 5.15 | 4.59 | 6 | – | 13.1 | 3.28 | > 100 | 2.88 | 1.78 | 2.54 | 2.22 | 3.05 | 32.9 | 1.71 | 1.18 |
